These results are taken from US11224628B2, “Method for extraction of an agent from a plant source” (Yissum Research Development Company of the Hebrew …, priority 2017, dated 2022).

This series can be described thus: Self-diffusion NMR (SD-NMR) diffusion coefficients of the components of the AX-loaded medium. To be noted: 0.5 wt % AX-loaded medium. The series is classed as physicochemical. Here is the method:
In order to determine the structure of the oil droplets (or micelles) of the medium, self-diffusion NMR analysis was carried out. SD-NMR is able to locate each component within the medium via measurements of its diffusion coefficient.
NMR measurements were performed with a Bruker AVII 500 spectrometer equipped with GREAT 1/10 gradients, a 5 mm BBO and a 5 mm BBI probe, both with a z-gradient coil and with a maximum gradient strength of 0.509 and 0.544 Tm^−1, respectively. Diffusion was measured using an asymmetric bipolar longitudinal eddy-current delay (bpLED) experiment, or an asymmetric bipolar stimulated echo (known as one-shot) experiment with convection compensation and an asymmetry factor of 20%, ramping the strongest gradient from 2% to 95% of maximum strength in 32 steps. The spectrum was processed with the Bruker TOPSPIN software. NMR spectra were recorded at 25±0.2° C. The components were identified by their chemical shift in 1H NMR.

Turning to `CC(O)CO` (stereo not shown) [PG, Propylene glycol], the Diffusion coefficient reads like this: (water content 0 wt %) 4.43 × 10^−11 m^2/sec; (water content 10 wt %) 4.78 × 10^−11 m^2/sec; (water content 20 wt %) 4.86 × 10^−11 m^2/sec; (water content 30 wt %) 8.69 × 10^−11 m^2/sec; (water content 40 wt %) 1.23 × 10^−10 m^2/sec; (water content 50 wt %) 1.75 × 10^−10 m^2/sec. The Diffusion coefficient is recorded as 2.41 × 10^−10 m^2/sec (water content 60 wt %), 3.35 × 10^−10 m^2/sec (water content 70 wt %), 4.67 × 10^−10 m^2/sec (water content 80 wt %) and 6.03 × 10^−10 m^2/sec (water content 90 wt %).
For `CCCCCCCC/C=C\CCCCCCCC(=O)OCCOCC(OCCO)C1OCC(OCCO)C1OCCO` (stereo not shown) [Tween 80, Polysorbate 80], the Diffusion coefficient is on record as 4.5 × 10^−12 m^2/sec (water content 0 wt %); 3.5 × 10^−12 m^2/sec (water content 10 wt %); 2.9 × 10^−12 m^2/sec (water content 20 wt %); 6 × 10^−13 m^2/sec (water content 30 wt %); 4 × 10^−13 m^2/sec (water content 40 wt %); 9 × 10^−13 m^2/sec (water content 50 wt %). Also, the Diffusion coefficient (water content 60 wt %) was 2.2 × 10^−12 m^2/sec, the Diffusion coefficient (water content 70 wt %) is 5.3 × 10^−12 m^2/sec, the Diffusion coefficient (water content 80 wt %) is recorded as 1.05 × 10^−11 m^2/sec and the Diffusion coefficient (water content 90 wt %) is listed as 1.91 × 10^−11 m^2/sec.
In the case of `[2H]O[2H]` [Formulation D2O, D2O], the Diffusion coefficient by setting is: (water content 10 wt %) 3.1 × 10^−11 m^2/sec; (water content 20 wt %) 2.84 × 10^−11 m^2/sec; (water content 30 wt %) 3.2 × 10^−12 m^2/sec; (water content 40 wt %) 1.3 × 10^−12 m^2/sec; (water content 50 wt %) 2.69 × 10^−11 m^2/sec; (water content 60 wt %) 7.96 × 10^−10 m^2/sec. For the same molecule, the Diffusion coefficient (water content 70 wt %) is 9.1 × 10^−10 m^2/sec, the Diffusion coefficient (water content 80 wt %) was 1.16 × 10^−9 m^2/sec and the Diffusion coefficient (water content 90 wt %) is 1.48 × 10^−09 m^2/sec.
`CCO` [EtOH, Ethanol]: the Diffusion coefficient is given as 4.13 × 10^−11 m^2/sec (water content 0 wt %); 4.66 × 10^−11 m^2/sec (water content 10 wt %); 4.78 × 10^−11 m^2/sec (water content 20 wt %); 8.67 × 10^−11 m^2/sec (water content 30 wt %); 1.2 × 10^−10 m^2/sec (water content 40 wt %); 1.7 × 10^−10 m^2/sec (water content 50 wt %). In addition, the Diffusion coefficient by setting is: (water content 60 wt %) 2.33 × 10^−10 m^2/sec; (water content 70 wt %) 3.32 × 10^−10 m^2/sec; (water content 80 wt %) 4.67 × 10^−10 m^2/sec; (water content 90 wt %) 5.89 × 10^−10 m^2/sec.
Turning to `CC1=C(/C=C/C(C)=C/C=C/C(C)=C/C=C/C=C(C)/C=C/C=C(C)/C=C/C2=C(C)C(=O)[C@@H](O)CC2(C)C)C(C)(C)C[C@H](O)C1=O` [AX, astaxanthin], the Diffusion coefficient (water content 0 wt %) is recorded as 4.7 × 10^−12 m^2/sec; the Diffusion coefficient (water content 10 wt %) is reported as 3 × 10^−12 m^2/sec; the Diffusion coefficient (water content 20 wt %) is 1.4 × 10^−12 m^2/sec; the Diffusion coefficient (water content 30 wt %) was 3 × 10^−13 m^2/sec; the Diffusion coefficient (water content 40 wt %) was 3 × 10^−13 m^2/sec; the Diffusion coefficient (water content 50 wt %) is reported as 7 × 10^−13 m^2/sec. For the same molecule, the Diffusion coefficient by setting is: (water content 60 wt %) 1.4 × 10^−12 m^2/sec; (water content 70 wt %) 4.8 × 10^−12 m^2/sec; (water content 80 wt %) 1.12 × 10^−11 m^2/sec.
As to `C=C(C)[C@H]1CC=C(C)CC1` [R-(+)-limonene, R-(+)-Limonene], the Diffusion coefficient is 5.46 × 10^−11 m^2/sec (water content 0 wt %); 3.09 × 10^−11 m^2/sec (water content 10 wt %); 2.36 × 10^−11 m^2/sec (water content 20 wt %); 3.2 × 10^−12 m^2/sec (water content 30 wt %); 1.4 × 10^−12 m^2/sec (water content 40 wt %); 1.4 × 10^−12 m^2/sec (water content 50 wt %). Besides, the Diffusion coefficient (water content 60 wt %) was 3.1 × 10^−12 m^2/sec, the Diffusion coefficient (water content 70 wt %) is on record as 5.7 × 10^−12 m^2/sec, the Diffusion coefficient (water content 80 wt %) is 1.10 × 10^−11 m^2/sec and the Diffusion coefficient (water content 90 wt %) is 1.91 × 10^−11 m^2/sec.
